Measured values as given in patent publication US7015237B2, “Pyridine matrix metalloproteinase inhibitors” (Warner-Lambert Company, priority 2001, dated 2006).

Key:
[1] = target: MMP-13 (catalytic domain of collagenase 3) (Homo sapiens, UniProt P45452); assay: Thiopeptolide substrate hydrolysis assay, MMP-13; format: biochemical; details: catalytic domain of collagenase 3; Table 1; read-out: MMP-13 IC50
From the text: (§1) The assays used to evaluate the biological activity of the invention compounds are well known and routinely used by those skilled in the study of MMP inhibitors and their use to treat clinical conditions.
(§2) The assays measure the amount by which a test compound reduces the hydrolysis of a thiopeptolide substrate catalyzed by a matrix metalloproteinase enzyme. Such assays are described in detail by Ye et al., in Biochemistry, 1992; 31(45):11231–11235, which is incorporated herein by reference.
Thiopeptolide substrates show virtually no decomposition or hydrolysis at or below neutral pH in the absence of a matrix metalloproteinase enzyme. A typical thiopeptolide substrate commonly utilized for assays is Ac-Pro-Leu-Gly-thioester-Leu-Leu-Gly-OEt. A 100-μL assay mixture will contain 50 mM of N-2-hydroxyethylpiperazine-N′-2-ethanesulfonic acid buffer (“HEPES”) at pH 7.0, 10 mM CaCl2, 100 μM thiopeptolide substrate, and 1 mM 5,5′-dithio-bis-(2-nitro-benzoic acid) (DTNB). The thiopeptolide substrate concentration may be varied from, for example, 10 to 800 μM to obtain Km and Kcat values. The change in absorbance at 405 nm is monitored on a Thermo Max microplate reader (Molecular Devices, Menlo Park, Calif.) at room temperature (22° C.). The calculation of the amount of hydrolysis of the thiopeptolide substrate is based on E412=13600 M^−1 cm^−1 for the DTNB-derived product 3-carboxy-4-nitrothiophenoxide. Assays are carried out with and without matrix metalloproteinase inhibitor compounds, and the amount of hydrolysis is compared for a determination of inhibitory activity of the test compounds.
In the tables, MMP-1 refers to full-length interstitial collagenase; MMP-3 refers to the catalytic domain of stromelysin-1; MMP-13 refers to the catalytic domain of collagenase 3. Test compounds were evaluated at various concentrations to determine their respective IC50 values.

[2] = target: T1, MMP-1 (full-length interstitial collagenase) (Homo sapiens, UniProt P03956); assay: Thiopeptolide substrate hydrolysis assay, MMP-1; format: biochemical; details: pH 7.0, 22° C.
T1 sequence (P03956 100-469): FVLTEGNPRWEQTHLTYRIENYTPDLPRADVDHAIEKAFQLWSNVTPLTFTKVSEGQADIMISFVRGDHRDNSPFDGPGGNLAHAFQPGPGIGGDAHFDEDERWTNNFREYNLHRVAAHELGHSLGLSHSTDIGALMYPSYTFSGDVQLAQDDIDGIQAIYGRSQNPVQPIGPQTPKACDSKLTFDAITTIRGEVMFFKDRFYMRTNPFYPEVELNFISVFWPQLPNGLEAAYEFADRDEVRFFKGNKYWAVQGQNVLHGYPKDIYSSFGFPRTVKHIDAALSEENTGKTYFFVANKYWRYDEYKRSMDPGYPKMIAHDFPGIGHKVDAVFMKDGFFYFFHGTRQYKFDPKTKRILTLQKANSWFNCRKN
From the text: as §1, with “The invention compounds of Formula I have been evaluated in standard assays for their ability to inhibit the catalytic activity of various MMP enzymes. The” for “The”
as §2
Thiopeptolide substrates show virtually no decomposition or hydrolysis at or below neutral pH in the absence of a matrix metalloproteinase enzyme. A typical thiopeptolide substrate commonly utilized for assays is Ac-Pro-Leu-Gly-thioester-Leu-Leu-Gly-OEt. […] The change in absorbance at 405 nm is monitored on a Thermo Max microplate reader (Molecular Devices, Menlo Park, Calif.) at room temperature (22° C.). […]
Representative compounds have been evaluated for their ability to inhibit various matrix metalloproteinase enzymes. […] Test compounds were evaluated at various concentrations to determine their respective IC50 values.

With O=C(NCc1ccc(F)cc1)c1cncc(C(=O)NCc2ccc(F)cc2)c1 [Example 9, Pyridine-3,5-dicarboxylic acid bis-(4-fluoro-benzylamide)] as the compound, how does the melting point read?
The melting point was 216 to 218 °C.

Which IC50 [1] does the source give for COc1ccc(CNC(=O)c2cncc(C(=O)NCc3ccc(OC)cc3)c2)cc1 [Example 6, Pyridine-3,5-dicarboxylic acid bis-(4-methoxy-benzylamide)] here?
Its IC50 is 8.7 µM.

And the melting point?
The melting point was 224 to 225 °C.

For O=C(NCc1cccc(Cl)c1)c1cncc(C(=O)NCc2cccc(Cl)c2)c1 [Example 3, Pyridine-3,5-dicarboxylic acid bis-(3-chloro-benzylamide)], which IC50 [1] is on record?
The IC50 was 30 µM.

What about the melting point of the same compound?
The melting point was 185 to 186 °C.

With O=C(NCc1ccc2c(c1)OCO2)c1cncc(C(=O)NCc2ccc3c(c2)OCO3)c1 [Example 7, Pyridine-3,5-dicarboxylic acid bis-[(1,3-benzodioxol-5-ylmethyl)-amide]] as the compound, how does the IC50 [2] read?
The IC50 was 30 µM.

What about the IC50 [1] of the same compound?
Its IC50 is 2.3 µM.

What about the melting point of the same compound?
The melting point was 194 to 195 °C.
